Measurements reported in EP0390515A1, “Novel adenine derivatives and their use as agents for increasing crop yields” (MITSUBISHI GAS CHEMICAL COMPANY, INC., priority 1989, dated 1990).
In brackets after ≈: the same amount, converted by molar mass. Read-outs that look alike come from different tables or passages of the source.

Legend:
[1] = tested on: glycine (soybean) hypocotyl section; experiment: Assay for cytokinin activity according to glycine (soybean) hypocotyl section growth test (callus weight); assay type: cell-based, Soybean (var.: Enrei); conditions: Miller's medium with 2,4-D, dark, 30°C, about one month
Description: Soybean seeds (var.: Enrei) were disinfected with antiformin containing 0.7% effective chlorine for 4 minutes and washed thrice with sterilized water.
Agar (15 ml, 1.6%) was put in a test tube 2.5 cm in diameter. A groove was cut by forceps on the surface of the agar and two soybean seeds treated as above were placed in this groove and kept in the dark at 30°C for 5 days.
In a glass tubular bottle 26 mm in inner diameter was put Miller's medium, to which a given concentration of the candidate compound, benzyladenine or zeatin and […] of 2,4-D were added. The central portion of hypocotyl budding out from the above seeds was cut off to give a section 1 mm thick. Four of the sections as one group were transplanted to the Miller's medium. This was placed in the dark at 30°C for about one month and then the weight of callus formed was measured. For untreated group, the Miller's medium containing 9 mg/l of 2,4-D was used.

[2] = tested on: leaf section of wheat; experiment: Activity on leaf section of wheat (senescence retardation, chlorophyll retention); assay type: cell-based, wheat [var.: Yukichabo (Triticum astivum)]; conditions: wheat leaf sections, 25°C, 4 days, dark
Description: Seeds of wheat [var.: Yukichabo (Triticum astivum)] were sown in vermiculite packed in a seed-bed box and were sprouted by keeping them at 28°C for 2 days in the dark. The seedlings wera grown at 25°C for 5 days under irradiation with light of 1500 Lx. When they grew to a length of 12 - 13 cm, a portion having a length of 1 cm was cut off from the leaf in the region 2 - 5 cm from the tip of the first true leaf. Five of the leaf sections as one group were floated with the upper surface of the leaf being uppermost on the surface of aqueous solution (2 ml) of a given concentration of the candidate compound or benzyladenine contained in a glass tubular bottle 32 mm in inner diameter. These were placed at 25°C for 4 days in the dark and thereafter, these leaf sections were put in a test tube containing 10 ml of 80% ethanol and this test tube was immersed in a water bath at 80°C for 20 minutes to extract chlorophyll. After cooling, 80% ethanol was added to make up to 10 ml and absorbance at 665 nm was measured. Senescence retardation was determined according to the degree of retention of chlorophyll. For the untreated group, water was used in place of the aqueous solution of candidate compound.

[3] = Water solubility; assay type: physicochemical
Description: Water solubility of adenine derivatives of the present invention and representative known cytokinin substances was measured and the results are shown in Table 7. […]

[4] = tested on: wheat shoots; experiment: Absorption from the base of wheat shoots and translocation (senescence retardation of leaf sections); assay type: cell-based, wheat [var.: Yukichabo (Triticum astivum)]; conditions: for The senescence retardation (%): 10 mg/l taken up from shoot base for 18 hours
Description: Wheat seedlings were grown to a height of 14-15 cm in the same manner as in the above Example 8 test (1) and the shoot was cut off at the base. These sections were used for the test.
A solution (10 ml) containing 10 mg/l of the candidate compound or benzyladenine was poured into a test tube 2.5 cm in diameter and five of the wheat shoots as one group were inserted in one test tube containing the candidate solution and left at 25°C for 18 hours under irradiation with light of 1500 Lx. Thereafter, each of the shoots was cut at 5-6 cm, 8-9 cm and 11-12 cm from the above cut end and five of the respective sections as one group were floated on the surface of distilled water (2 ml) in a glass tubular bottle 32 mm in inner diameter with the upper surface of the leaves being uppermost. These were left at 25°C for 3 days in the dark and thereafter, the leaf sections were put in a test tube containing 10 ml of 80% ethanol. This test tube was immersed in a water bath at 80°C for 20 minutes to extract chlorophyll. After cooling, 80% ethanol was added to make up to 10 ml and absorbance of the solution at 665 nm was measured. In the same manner as in the above Example 8 test (1), senescence retardation was obtained.

[5] = tested on: Rice seeds (var.: Nankin No. 11) leaf section; experiment: Assay of cytokinin activity by measurement of chlorophyll content (senescence retardation of rice leaf sections); assay type: cell-based, Rice (var.: Nankin No. 11); conditions: dark, 30°C, 3 days
Description: Rice seeds (var.: Nankin No. 11) were sown in soil mixed with fertilizer in a seed box and raised for about one month in a greenhouse (25°C in the daytime and 15°C in the night).
A leaf section 1 cm long was cut off from the center of the fourth leaf of the seedlings at the sixth leaf stage. Five leaf sections as one group which had been cut off were floated on the surface of an aqueous solution (2 ml) of the candidate compound or benzyl adenine at a given concentration contained in a glass tubular bottle of 32 mm in inner diameter. This was left to stand in the dark at 30°C for 3 days. The leaf sections were taken out and put in a test tube containing 10 ml of 80% ethanol and the glass tube was immersed in a water bath of 80°C for 20 minutes to extract chlorophyll. After cooling, 80% ethanol was added to make up to 10 ml and absorbance at 665 nm was measured. For the untreated group, water was used in place of the candidate solution in all examples.
Senescence retardation was determined according to the degree of chlorophyll retention, that is, calculated using the following formula (in all examples). [formula] • (A) : Absorbance of treated group after 3 days • (B) : Absorbance of untreated group after 3 days • (C) : Absorbance of leaves before treatment.

[6] = tested on: leaf of wheat; experiment: Absorption from the surface of the leaf of wheat and translocation (length of green portion); assay type: cell-based, wheat [var.: Yukichabo (Triticum astivum)]; conditions: for The length of the green portion (mm) (average in 10 leaves): 10 µl in 0.2% Tween 80 on centre of wheat leaf section, 25°C, 5 days, dark
Description: In the same manner as in the above Example 8 test (1), wheat seedlings were grown to a height of 12 - 13 cm and a portion was cut off from tle region 4 cm from the tip of the first true leaf and this leaf section was used for this test.
The bottom of a Petri dish 9 cm in diameter was covered with a sheet of circular filter paper which was wetted with 2.5 ml of distilled water. A slide glass was put thereon and ten of the leaf sections were arranged on this slide glass with the upper surface of the leaf being uppermost. On the center of the leaf sections was put 10 µl of the solution prepared by dissolving the candidate compound or benzyladenine in a 0.2% aqueous solution of Tween 80 at a given concentration. The Petri dish was covered and left at 25°C for 5 days in the dark. In the part where the candidate solution was absorbed and translocated around the position on which the solution was put, the length of the portion where chlorophyll was retained, namely, the length of the green portion was measured. […]

[7] = region of leaf section 5-6 (cm) from cut end
[8] = region of leaf section 8-9 (cm) from cut end
[9] = region of leaf section 11-12 cm from cut end

Compound | The weight of soybean callus formed ([1]; 0.001 mg/l) [mg] | The weight of soybean callus formed ([1]; 0.01 mg/l) [mg] | The weight of soybean callus formed ([1]; 0.1 mg/l) [mg] | The senescence retardation (%) ([2]; 0.0001 mg/l) | The senescence retardation (%) ([2]; 0.001 mg/l) | The senescence retardation (%) ([2]; 0.01 mg/l) | The senescence retardation (%) ([2]; 0.1 mg/l) | The senescence retardation (%) ([2]; 1.0 mg/l) | The senescence retardation (%) ([2]; 10 mg/l) | The senescence retardation (%) [4, 7] [%] | The senescence retardation (%) [4, 8] [%] | The senescence retardation (%) [4, 9] [%] | The senescence retardation (%) ([5]; 0.001 mg/l) | The senescence retardation (%) ([5]; 0.01 mg/l) | The senescence retardation (%) ([5]; 0.1 mg/l) | The senescence retardation (%) ([5]; 1.0 mg/l) | The length of the green portion (mm) (average in 10 leaves) ([6]; 0.1 mg/l) | The length of the green portion (mm) (average in 10 leaves) ([6]; 1.0 mg/l) | The length of the green portion (mm) (average in 10 leaves) ([6]; 10 mg/l) | other results
c1ccc(CNc2ncnc3nc[nH]c23)cc1 [Benzyladenine, 6-benzylaminopurine, reference compound] | 76 | 836 | 674 | 7 | 15 | 50 | 55 | 74 | 75 | 17 | 21 | 14 | 17 | 64 | 93 | 93 | 9.6 | 14.2 | 16.9 | solubility [3]: 0.03 mg/mL (≈ 0.133 mM)
CON(C)CCNc1ncnc2nc[nH]c12 [MAED, N⁶-[2-(N-methoxy-N-methylamino)ethyl]adenine] | 97 | 182 | 654 | 4 | 14 | 43 | 56 | 58 | 76 | 37 | 34 | 20 | 14 | 60 | 100 | 95 | 9.9 | 19.8 | 28.8 | The weight of soybean callus formed ([1]; 1.0 mg/l): 823 mg; The weight of soybean callus formed ([1]; 10 mg/l): 705 mg; solubility ([3]; 20°C, read-out: Solubility (g/100 g H₂O) (20°C)): 99 mg/mL (≈ 445 mM); senescence retardation compared with benzyladenine (absorbability and translocation) ([4]; all regions of the first true leaf of wheat, result in words): more pronounced effect of senescence retardation than benzyladenine in all regions; green portion compared with benzyladenine (absorbability and translocation) ([6]; at the same concentration, result in words): expanded the green portion in more widely than benzyladenine
